Our source for the IC50 values is patent US10442803B2, “Tricyclic heterocycles as bet protein inhibitors” (Incyte Corporation, priority 2013, dated 2019).

As a reminder, the IC50 is the concentration that gives 50% inhibition.

One assay concerns KMS.12.BM cells. Nature of the assay: KMS.12.BM cell viability assay. It is filed as cell-based. The settings on record: 72 h; KMS.12.BM human myeloma cells, 3 days, Cell Titer-GLO ATP quantitation; read-out: KMS cellular IC50. Here is the method:
KMS.12.BM cell line (human myeloma) was purchased from JCRB (Osaka, Japan) and maintained in RPMI with 10% FBS culture medium. To measure the cytotoxic activity of the compounds through ATP quantitation, the KMS.12.BM cells are plated in the RPMI culture medium at 5000 cells/well/per 100 μL into a 96-well polystyrene clear black tissue culture plate (Greiner-bio-one through VWR, NJ), in the presence or absence of a concentration range of test compounds. After 3 days, […] Cell Titer-GLO Luminescent (Promega, Madison, Wis.) cell culture agent is added to each well for 10 minutes at room temperature to stabilize the luminescent signal. This determines the number of viable cells in culture based on quantitation of the ATP present, which signals the presence of metabolically active cells. Luminescence is measured with the Top Count 384 (Packard Bioscience through Perkin Elmer, Boston, Mass.).
IC50 data for the Examples is presented in Table 4 as determined by Assay B1.
On the technique in general: In ATP-based viability assays light output follows the ATP content of the culture.
Regarding `Cc1nnc2ccc3c(cc(-c4nccs4)n3Cc3ccccc3)n12` [Example 67, 6-benzyl-1-methyl-7-(1,3-thiazol-2-yl)-6H-pyrrolo[2,3-e][1,2,4]triazolo[4,3-a]pyridine], the IC50 was at most 1000 nM.
In the case of `Cc1nnc2ccc3c(cc(-c4ccccn4)n3Cc3ccccc3)n12` [Example 68, 6-benzyl-1-methyl-7-pyridin-2-yl-6H-pyrrolo[2,3-e][1,2,4]triazolo[4,3-a]pyridine], the IC50 was at most 1000 nM.
For the molecule `Cc1nnc2ccc3c(cc(-c4cncs4)n3Cc3ccccc3)n12` [Example 69, 6-benzyl-1-methyl-7-(1,3-thiazol-5-yl)-6H-pyrrolo[2,3-e][1,2,4]triazolo[4,3-a]pyridine], the IC50 was at most 1000 nM.
Still for that read-out and setting: in the case of `Cc1nnc2ccc3c(cc(-c4cn(C)cn4)n3Cc3ccccc3)n12` [Example 70, 6-benzyl-1-methyl-7-(1-methyl-1H-imidazol-4-yl)-6H-pyrrolo[2,3-e][1,2,4]triazolo[4,3-a]pyridine] it was at most 1000 nM; in that of `Cc1nnc2ccc3c(cc(-c4ccsc4)n3Cc3ccccc3)n12` [Example 72, 6-benzyl-1-methyl-7-(3-thienyl)-6H-pyrrolo[2,3-e][1,2,4]triazolo[4,3-a]pyridine], at most 1000 nM.
The same measure, in the same setting: the figure for `Cc1nnc2ccc3c(cc(-c4cccs4)n3Cc3ccccc3)n12` [Example 73, 6-benzyl-1-methyl-7-(2-thienyl)-6H-pyrrolo[2,3-e][1,2,4]triazolo[4,3-a]pyridine] is at most 1000 nM; for `Cc1nnc2ccc3c(cc(-c4c[nH]cn4)n3Cc3ccccc3)n12` [Example 74, 6-benzyl-7-(1H-imidazol-4-yl)-1-methyl-6H-pyrrolo[2,3-e][1,2,4]triazolo[4,3-a]pyridine] it is at most 1000 nM; for `Cc1nnc2ccc3c(cc(-c4cn(CCN5CCOCC5)cn4)n3Cc3ccccc3)n12` [Example 75, 6-benzyl-1-methyl-7-[1-(2-morpholin-4-ylethyl)-1H-imidazol-4-yl]-6H-pyrrolo[2,3-e][1,2,4]triazolo[4,3-a]pyridine] it is at most 1000 nM.
In the case of `Cc1nnc2ccc3c(cc(-c4ccn(C)n4)n3Cc3ccccc3)n12` [Example 76, 6-benzyl-1-methyl-7-(1-methyl-1H-pyrazol-3-yl)-6H-pyrrolo[2,3-e][1,2,4]triazolo[4,3-a]pyridine], the IC50 was at most 1000 nM.
On the same count and under the same terms, in the case of `Cc1nnc2ccc3c(cc(-c4ccn(CCN5CCOCC5)n4)n3Cc3ccccc3)n12` [Example 77, 6-benzyl-1-methyl-7-[1-(2-morpholin-4-ylethyl)-1H-pyrazol-3-yl]-6H-pyrrolo[2,3-e][1,2,4]triazolo[4,3-a]pyridine] it was at most 1000 nM; in that of `Cc1nnc2ccc3c(cc(-c4ccn(CCC#N)n4)n3Cc3ccccc3)n12` [Example 78, 3-[3-(6-benzyl-1-methyl-6H-pyrrolo[2,3-e][1,2,4]triazolo[4,3-a]pyridin-7-yl)-1H-pyrazol-1-yl]propanenitrile], at most 1000 nM; in that of `CCn1ccc(-c2cc3c(ccc4nnc(C)n43)n2Cc2ccccc2)n1` [Example 79, 6-benzyl-7-(1-ethyl-1H-pyrazol-3-yl)-1-methyl-6H-pyrrolo[2,3-e][1,2,4]triazolo[4,3-a]pyridine], at most 1000 nM.
On the same count and under the same terms, the figure for `CCn1cnc(-c2cc3c(ccc4nnc(C)n43)n2Cc2ccccc2)c1` [Example 80, 6-benzyl-7-(1-ethyl-1H-imidazol-4-yl)-1-methyl-6H-pyrrolo[2,3-e][1,2,4]triazolo[4,3-a]pyridine] is at most 1000 nM; for `Cc1nnc2ccc3c(cc(-c4cn(CCC#N)cn4)n3Cc3ccccc3)n12` [Example 81, 3-[4-(6-benzyl-1-methyl-6H-pyrrolo[2,3-e][1,2,4]triazolo[4,3-a]pyridin-7-yl)-1H-imidazol-1-yl]propanenitrile] it is at most 1000 nM.
On the same count and under the same terms, the figure for `CNC(=O)c1cc2c(ccc3nnc(C)n32)n1Cc1ccccc1` [Example 82, 6-benzyl-N,1-dimethyl-6H-pyrrolo[2,3-e][1,2,4]triazolo[4,3-a]pyridine-7-carboxamide] is at most 1000 nM.
For `CCCNC(=O)c1cc2c(ccc3nnc(C)n32)n1Cc1ccccc1` [Example 83, 6-benzyl-1-methyl-N-propyl-6H-pyrrolo[2,3-e][1,2,4]triazolo[4,3-a]pyridine-7-carboxamide], the IC50 is at most 1000 nM.
Same read-out and setting: in the case of `Cc1nnc2ccc3c(cc(C(=O)NC4CCC4)n3Cc3ccccc3)n12` [Example 85, 6-benzyl-N-cyclobutyl-1-methyl-6H-pyrrolo[2,3-e][1,2,4]triazolo[4,3-a]pyridine-7-carboxamide] it was at most 1000 nM.
In the case of `Cc1nnc2ccc3c(cc(-c4ccn(CCN(C)C)n4)n3Cc3ccccc3)n12` [Example 89, 2-[3-(6-benzyl-1-methyl-6H-pyrrolo[2,3-e][1,2,4]triazolo[4,3-a]pyridin-7-yl)-1H-pyrazol-1-yl]-N,N-dimethylethanamine], the concentration for half-maximal inhibition (IC50) is at most 1000 nM.
On the same count and under the same terms, the figure for `Cc1nnc2ccc3c(cc(-c4ccn(C5(CC#N)CNC5)n4)n3Cc3ccccc3)n12` [Example 90, {3-[3-(6-benzyl-1-methyl-6H-pyrrolo[2,3-e][1,2,4]triazolo[4,3-a]pyridin-7-yl)-1H-pyrazol-1-yl]azetidin-3-yl}acetonitrile] is at most 1000 nM; for `CC(=O)N1CC(CC#N)(n2ccc(-c3cc4c(ccc5nnc(C)n54)n3Cc3ccccc3)n2)C1` [Example 91, {1-acetyl-3-[3-(6-benzyl-1-methyl-66H-pyrrolo[2,3-e][1,2,4]triazolo[4,3-a]pyridin-7-yl)-1H-pyrazol-1-yl]azetidin-3-yl}acetonitrile] it is at most 1000 nM.
Same read-out and setting: the figure for `Cc1nnc2ccc3c(cc(-c4ccn(C5(CC#N)CN(S(C)(=O)=O)C5)n4)n3Cc3ccccc3)n12` [Example 92, [3-[3-(6-benzyl-1-methyl-6H-pyrrolo[2,3-e][1,2,4]triazolo[4,3-a]pyridin-7-yl)-1H-pyrazol-1-yl]-1-(methylsulfonyl)azetidin-3-yl]acetonitrile] is at most 1000 nM; for `Cc1nnc2ccc3c(cc(-c4ccn(C5(CC#N)CN(C)C5)n4)n3Cc3ccccc3)n12` [Example 93, {3-[3-(6-benzyl-1-methyl-6H-pyrrolo[2,3-e][1,2,4]triazolo[4,3-a]pyridin-7-yl)-1H-pyrazol-1-yl]-1-methylazetidin-3-yl}acetonitrile] it is at most 1000 nM; for `Cc1nnc2ccc3c(cc(-c4ccn(CCC(=O)N(C)C)n4)n3Cc3ccccc3)n12` [Example 95, 3-[3-(6-benzyl-1-methyl-6H-pyrrolo[2,3-e][1,2,4]triazolo[4,3-a]pyridin-7-yl)-1H-pyrazol-1-yl]-N,N-dimethylpropanamide] it is at most 1000 nM.
On the same count and under the same terms, the figure for `CCNC(=O)CCn1ccc(-c2cc3c(ccc4nnc(C)n43)n2Cc2ccccc2)n1` [Example 96, 3-[3-(6-benzyl-1-methyl-6H-pyrrolo[2,3-e][1,2,4]triazolo[4,3-a]pyridin-7-yl)-1H-pyrazol-1-yl]-N-ethylpropanamide] is at most 1000 nM; for `CNC(=O)CCn1ccc(-c2cc3c(ccc4nnc(C)n43)n2Cc2ccccc2)n1` [Example 97, 3-[3-(6-benzyl-1-methyl-6H-pyrrolo[2,3-e][1,2,4]triazolo[4,3-a]pyridin-7-yl)-1H-pyrazol-1-yl]-N-methylpropanamide] it is at most 1000 nM.
`Cc1nnc2ccc3c(cc(-c4ccn(CCC(N)=O)n4)n3Cc3ccccc3)n12` [Example 98, 3-[3-(6-benzyl-1-methyl-6H-pyrrolo[2,3-e][1,2,4]triazolo[4,3-a]pyridin-7-yl)-1H-pyrazol-1-yl]propanamide]: the IC50 was at most 1000 nM.
The same measure, in the same setting: in the case of `CNC(=O)c1cc2c(ccc3nnc(C)n32)n1Cc1cccc(Cl)c1` [Example 99, 6-(3-chlorobenzyl)-N,1-dimethyl-6H-pyrrolo[2,3-e][1,2,4]triazolo[4,3-a]pyridine-7-carboxamide] it was at most 1000 nM; in that of `Cc1nnc2ccc3c(cc(C(=O)N[C@H]4C[C@H](C#N)C4)n3Cc3ccccc3)n12` [Example 100, 6-benzyl-N-(trans-3-cyanocyclobutyl)-1-methyl-6H-pyrrolo[2,3-e][1,2,4]triazolo[4,3-a]pyridine-7-carboxamide], 1000 to 10000 nM; in that of `Cc1nnc2ccc3c(cc(C(=O)N[C@H]4C[C@@H](C#N)C4)n3Cc3ccccc3)n12` [Example 101, 6-benzyl-N-(cis-3-cyanocyclobutyl)-1-methyl-6H-pyrrolo[2,3-e][1,2,4]triazolo[4,3-a]pyridine-7-carboxamide], 1000 to 10000 nM.
Same read-out and setting: in the case of `CNC(=O)c1cc2c(ccc3nnc(C)n32)n1Cc1cccc(F)c1` [Example 102, 6-(3-fluorobenzyl)-N,1-dimethyl-6H-pyrrolo[2,3-e][1,2,4]triazolo[4,3-a]pyridine-7-carboxamide] it was at most 1000 nM; in that of `Cc1nnc2ccc3c(cc(-c4ccn(CCC(=O)N5CCC5)n4)n3Cc3cccc(Cl)c3)n12` [Example 104, 7-[1-(3-azetidin-1-yl-3-oxopropyl)-1H-pyrazol-3-yl]-6-(3-chlorobenzyl)-1-methyl-6H-pyrrolo[2,3-e][1,2,4]triazolo[4,3-a]pyridine], at most 1000 nM.

The same assay, now with this note: KMS.12.BM human myeloma cells, 3 days, Cell Titer-GLO ATP quantitation; read-out: KMS cellular IC50.
For the molecule `Cc1nnc2ccc3c(cc(-c4ccn(CCC(=O)N(C)C)n4)n3Cc3cccc(Cl)c3)n12` [Example 103, 3-{3-[6-(3-chlorobenzyl)-1-methyl-6H-pyrrolo[2,3-e][1,2,4]triazolo[4,3-a]pyridin-7-yl]-1H-pyrazol-1-yl}-N,N-dimethylpropanamide], the concentration for half-maximal inhibition (IC50) was at most 1000 nM.
